One molecule from ChEMBL document CHEMBL3714741, “Compounds and compositions as ITPKB inhibitors” (2011) can be followed below.

By IC50 is commonly meant the concentration that gives 50% inhibition.

The target of assay [1] is T1, Inositol-trisphosphate 3-kinase B (Homo sapiens) (UniProt P27987).
T1 sequence (whole entry): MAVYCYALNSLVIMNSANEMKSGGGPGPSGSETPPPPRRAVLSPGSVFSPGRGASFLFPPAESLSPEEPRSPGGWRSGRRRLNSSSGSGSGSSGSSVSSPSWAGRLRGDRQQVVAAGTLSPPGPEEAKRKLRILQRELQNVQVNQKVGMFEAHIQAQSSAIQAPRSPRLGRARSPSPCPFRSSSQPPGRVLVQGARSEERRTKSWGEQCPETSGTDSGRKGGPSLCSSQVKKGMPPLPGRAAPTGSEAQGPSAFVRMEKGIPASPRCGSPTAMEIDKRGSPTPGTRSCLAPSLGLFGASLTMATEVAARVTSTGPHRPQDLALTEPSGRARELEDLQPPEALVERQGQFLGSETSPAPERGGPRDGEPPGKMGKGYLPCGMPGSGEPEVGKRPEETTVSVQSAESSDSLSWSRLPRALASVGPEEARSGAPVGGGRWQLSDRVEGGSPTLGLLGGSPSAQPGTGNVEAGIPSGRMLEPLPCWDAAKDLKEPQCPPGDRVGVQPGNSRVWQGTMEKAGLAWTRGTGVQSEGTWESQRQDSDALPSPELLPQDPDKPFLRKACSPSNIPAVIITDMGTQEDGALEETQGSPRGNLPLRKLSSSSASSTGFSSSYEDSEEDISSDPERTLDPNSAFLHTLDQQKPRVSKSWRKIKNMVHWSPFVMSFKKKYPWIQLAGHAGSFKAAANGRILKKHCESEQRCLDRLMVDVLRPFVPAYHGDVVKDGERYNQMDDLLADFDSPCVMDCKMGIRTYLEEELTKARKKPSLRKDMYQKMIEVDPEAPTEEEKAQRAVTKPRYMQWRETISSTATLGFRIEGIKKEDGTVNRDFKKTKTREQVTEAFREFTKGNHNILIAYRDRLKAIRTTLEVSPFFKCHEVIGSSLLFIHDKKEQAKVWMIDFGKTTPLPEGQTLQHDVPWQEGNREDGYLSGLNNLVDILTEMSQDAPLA
Put plainly: Inhibition of ITPKb in human Jurkat cells assessed as reduction in conversion of IP3 to IP4 using [3H]-myo-inositol incubated for 5 mins by beta-RAM radio-HPLC method. Type of assay: cell-based.

Assay [2] addresses T2, Kinase (Mus musculus, UniProt B2RXC2).
T2 sequence (B2RXC2 whole entry): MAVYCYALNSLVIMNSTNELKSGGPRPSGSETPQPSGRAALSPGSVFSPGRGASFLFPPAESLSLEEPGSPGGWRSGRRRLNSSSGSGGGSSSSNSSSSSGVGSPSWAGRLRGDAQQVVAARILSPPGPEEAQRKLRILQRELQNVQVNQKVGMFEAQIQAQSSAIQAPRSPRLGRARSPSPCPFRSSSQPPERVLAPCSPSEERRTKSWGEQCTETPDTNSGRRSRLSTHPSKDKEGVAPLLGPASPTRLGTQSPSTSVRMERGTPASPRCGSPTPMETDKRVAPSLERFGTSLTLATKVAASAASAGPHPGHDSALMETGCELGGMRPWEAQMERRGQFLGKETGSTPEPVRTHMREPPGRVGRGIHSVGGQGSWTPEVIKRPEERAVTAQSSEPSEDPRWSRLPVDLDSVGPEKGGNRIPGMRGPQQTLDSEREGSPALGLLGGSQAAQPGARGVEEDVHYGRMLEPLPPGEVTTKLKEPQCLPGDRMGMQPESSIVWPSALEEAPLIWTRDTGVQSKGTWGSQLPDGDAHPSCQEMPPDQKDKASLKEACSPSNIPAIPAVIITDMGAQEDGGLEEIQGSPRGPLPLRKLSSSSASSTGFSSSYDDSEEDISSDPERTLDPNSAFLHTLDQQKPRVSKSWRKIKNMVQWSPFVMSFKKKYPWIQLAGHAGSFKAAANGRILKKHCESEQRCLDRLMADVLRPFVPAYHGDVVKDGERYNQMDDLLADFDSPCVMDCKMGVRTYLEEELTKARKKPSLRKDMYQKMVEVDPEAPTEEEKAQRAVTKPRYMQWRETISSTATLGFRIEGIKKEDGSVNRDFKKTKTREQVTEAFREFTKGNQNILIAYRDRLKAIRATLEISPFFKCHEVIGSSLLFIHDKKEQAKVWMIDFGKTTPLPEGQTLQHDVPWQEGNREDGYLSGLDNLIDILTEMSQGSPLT
Put plainly: Inhibition of mouse ITPKb (640 to 942 residues) expressed in Escherichia coli HK100 assessed as reduction in phosphorylation of IP3 to IP4 incubated for 60 mins by kinase-Glo ATP depletion assay. On the technique in general: In Kinase-Glo more light means more ATP remaining.

Calls of active or inactive are those of the source. The rule behind the calls is not given here.

Turning to `Cc1cnc(-c2n[nH]cc2CN2CCN(c3ccc(C(F)(F)F)cn3)[C@H](C)C2)[nH]1`, the inhibition result in assay [1] was “Active”. In addition, the IC50 in assay [2] amounted to 10 µM.
